Data set [1] is described as follows: Fluorescence emission before/after photolysis at pH=8 (spectroscopic studies of photo reactions). The format is physicochemical. The procedure:
FIG. 16. Spectroscopic studies of photo reactions for different FLASH-off probes. A. Schematic depiction of the photo reactions for FLASH-off 500-650 (1a-d respectively) with the absorbance and emission spectra scans of the photo reactions (5 μM) in (citric acid+Na2HPO4 buffer, pH=8) before (red) and after (dark) irradiation 1 min 365 nm lamp. All spectra were taken in triplicates. B. Pictures of solutions of panel A in white light (top and bottom) and under UV light (middle).
Photolysis experiments. Solutions for compounds 1a-d were made in the corresponding buffers (pH=3-8) at a concentration of 1-100 μM. The samples were irradiated using different UV light sources (i) LED light source (405 nm, 1.14 mW cm^−2, LuxeonStar SZ-05-U3); UV lamp (˜365 nm, 0.32 mW cm^−2; UVL-28 EL Series, UVP) at different power and time settings (1 s-5 min). Fluorescence intensity was measured at the corresponding λmax of emission before irradiation (t=0 min) and after irradiation (t=1, 2, 3, and 5 min). The data were plotted as the integrated fluorescence intensity normalized to the initial intensity (I=1).

The test system of data set [2] is human FFPE tonsil sections. Kind of data set: Multiplexed tissue imaging and quenching in FFPE tonsil sections. As to the method:
FIG. 23. Quenching can be spatially controlled. A. Focused local quenching experiment (top) in tonsil tissue sections using an epifluorescent microscope. Local quenching was performed using a 40× magnification (DAPI, 8 s) and read-out was performed with 10× magnification (647 nm channel). (<90%) of fixed human tonsil stained with CD45-FLASH-off 650. Whole sample quenching (bottom) was achieved by soaking the sample with buffer at pH=8.4 and using an external 405 nm lamp placed at about 1 cm distance for 2 min. Scale bar=[…] (top), […] (bottom).
Human tissue sections. De-identified formaldehyde-fixed paraffin-embedded tissue sections were commercially obtained from Biomax (HuFOT161, Biomax). Tissue sections were de-paraffinized, rehydrated, and antigen-retrieved in pH 9antigen retrieval buffer. Then sections were blocked with Intercept Blocking buffer (LI-COR) for 30 min before antibody staining for FLASH-off FFPE. Tissues were incubated with FLASH-off antibody conjugates for 30 minutes followed by rinses. […]
We prepared four antibody-FLASH-off conjugates that recognize human immune markers including CD45, CD11c, CD11b, and Pan-CK. […] Regions of high immune cell density were localized and the location of the selected immune markers was assessed within the distinctive morphological structures of tonsils tissue. […]

Structures are written as SMILES.

Turning to `CNC(=O)c1ccccc1Cc1c2ccc(=N)c(S(=O)(=O)O)c-2oc2c(S(=O)(=O)O)c(N)ccc12` [Compound 7a], the “spirocyclization with increasing pH” value in data set [1] is “did not proceed with increasing pH”.
In the case of `N=C(N)c1ccc(-c2cc3ccc(C(=N)N)cc3[nH]2)cc1` [DAPI], the “signal intensity of non-photoquenchable stains after UV light irradiation” value in data set [2] is “without causing an apparent decrease in signal intensity”.

Source of the values: patent US20250283800A1, “PROBES FOR FLUORESCENCE IMAGING” (The General Hospital Corporation, priority 2022, published 2025).
